Patent publication US20210361664A1, “CORTICOTROPIN RELEASING FACTOR RECEPTOR ANTAGONISTS” (Spruce Biosciences, Inc., priority 2017, published 2021)

Key:
[1] = Study 2 Part A: multiple-dose, dose-escalation pharmacokinetics (Phase 1, 14 days); assay type: in vivo, human; conditions: after 2 weeks of dosing
Method: The 2-part multiple-dose study, Study 2, determined the safety and tolerability of repeated daily doses of Compound 1 and investigated the effects on biomarkers of relevance for the treatment of alcohol dependence.
PK were also evaluated in the multiple-dose, dose-escalation study, Study 2. In Part A of the study, subjects were divided into 3 cohorts and received 50, 150, or 200 mg Compound 1 or placebo for 14 consecutive days (at least 6 subjects received Compound 1 and 2 subjects received placebo in each cohort). […] All dosing occurred in the fed state. An assessment of diurnal cortisol levels, plus when under conditions of glucose clamp, were also carried out both prior to and during the dosing period.
Consistent with the single-dose study (Study 1), concentrations appeared to decline in a bi-exponential manner, characterized by a rapid decrease within the first 24 hours. […] The Tmax appeared to be consistent across doses. Overall half-lives, weight normalized CL/F and V/F were consistent for 150 and 200 mg. However, the values for these latter 2 parameters were almost doubled at the 50-mg dose level. Variability (CV %) for apparent clearance and volume of distribution were large and not reduced with weight-normalization.
Table 8 presents the results of the dose proportionality assessment for the AUC0-24 and Cmax over the tested dose range.

CRF1 receptor = target: T1, CRF1 receptor (Homo sapiens, UniProt P34998); assay: Phase 2 study in adults with classic CAH: hormone response (ACTH, 17-OHP, androstenedione); assay type: in vivo
T1 construct: from tissue; host or cells: in vivo, human patients (anterior pituitary corticotrophs)
T1 sequence (P34998 24-415): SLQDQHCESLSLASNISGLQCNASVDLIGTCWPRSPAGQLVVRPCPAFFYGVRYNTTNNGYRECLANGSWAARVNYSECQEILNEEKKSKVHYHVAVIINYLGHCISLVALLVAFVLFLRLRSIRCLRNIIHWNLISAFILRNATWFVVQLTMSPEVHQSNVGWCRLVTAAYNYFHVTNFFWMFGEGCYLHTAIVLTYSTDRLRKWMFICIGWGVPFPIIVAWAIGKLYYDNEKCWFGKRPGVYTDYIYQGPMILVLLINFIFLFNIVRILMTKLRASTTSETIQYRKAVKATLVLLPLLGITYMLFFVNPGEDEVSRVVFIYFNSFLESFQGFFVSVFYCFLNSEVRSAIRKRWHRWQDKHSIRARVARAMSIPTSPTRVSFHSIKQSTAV
Description: Cohort A of the Phase 2 Study includes a 6-week, multiple-dose, dose escalation study of Compound 1 for the treatment of adults with classic CAH. After screening, eligible patients will be enrolled into a 6-week treatment period followed by a 4-week washout/safety follow-up period.
This cohort will be conducted in approximately 9 patients, who will receive Compound 1 daily for up to 6 weeks. Compound 1 will be administered as an oral daily dose. Patients will undergo titration of Compound 1 through three escalating dosage strengths at 2-week intervals. […]
Patients in Cohort B will receive study drug at 200 mg BID, with a dose in the morning and a dose in the evening, either with a meal or consumption of a standardized snack. For Cohorts C and D, the dose level and the frequency and timing of dosing will be determined based on interim data from the previous cohorts. […]
• 1. […] To assess the efficacy of Compound 1 in subjects with classic CAH as measured by percent and absolute change in 17-OHP compared to baseline.
• 3. To explore the dose(s) of Compound 1 that cause pharmacodynamics changes in plasma concentrations of ACTH, androstenedione, and testosterone, as measured by the absolute and percent change from baseline by dose. • 4. […]

[2] = Study 1: single-escalating oral dose pharmacokinetics, incl. food effect (Phase 1); assay type: in vivo, human; conditions: 50 to 800 mg, fed state
Method: Study 1 was the first-in-human study that investigated the safety, tolerability, and PK of single-escalating doses of Compound 1, given orally, to healthy adult subjects. […] The data from this study were used for the selection of doses for Study 2.
In Study 1, Compound 1 was administered to healthy adult subjects as a single PO dose of 2, 10, 50, 150, 400, or 800 mg in the fed state and 150 mg in the fasted state. Absorption occurred moderately late, achieving peak Cmax between 4 to 6 hours following dosing in the fed state.
When Compound 1 was given in the fed state, median time to reach maximum plasma concentration (Tmax) occurred between 4 and 6 hours.
As part of this single-dose escalation study, a food effect PK investigation was performed to examine Compound 1 exposures in both the fed and fasted states at the 150-mg dose level. A total of 6 subjects were administered 150 mg Compound 1 in each of these 2 dosing groups. Of these 6 subjects, 4 subjects received Compound 1 at the same dose in both fed and fasted states. […] Table 6 provides a summary of the PK parameters at the 150-mg dose level under both fed and fasted state conditions.
PK parameters AUC0-∞ and Cmax were analyzed separately for dose proportionality for Compound 1 from 50 to 800 mg when administered in the fed state. […]

CCC(CC)c1cc(C)nc2c(-c3sc(N4CCOCC4)nc3Cl)c(C)nn12 [Compound 1, 3-(4-Chloro-2-(morpholin-4-yl)thiazol-5-yl)-7-(1-ethylpropyl)-2,5-dimethylpyrazolo(1,5-a)pyrimidine]
Blood concentrations relative to steady state [1]: close to steady-state levels
subjects with 17-OHP within the guideline range after treatment (CRF1 receptor; guideline range (1200 ng/dL)): 50%
morning rise in A4 (CRF1 receptor; patients with CAH): attenuates
AUC0-∞ increase for every doubling of dose, relative to dose proportionality [2]: 1.74 times
Cmax dose proportionality, in words [2]: more than dose proportional
